# Results published in patent US8198317B2, “Methylenedioxy phenolic compounds and their use to treat disease” (The Ohio State University Research Foundation, priority 2008, dated 2012).
# What was measured:
# human full length PPARα = biological target: T1, human full length PPARα (Homo sapiens, UniProt Q07869); experiment: PPARα promoter-reporter luciferase assay in HepG2 cells; assay type: cell-based
# T1 construct: HepG2 cells transfected by full length human PPARα linked to luciferase reporter; expressed in transfected cells; host or cells: HepG2
# T1 sequence (Q07869 1-468): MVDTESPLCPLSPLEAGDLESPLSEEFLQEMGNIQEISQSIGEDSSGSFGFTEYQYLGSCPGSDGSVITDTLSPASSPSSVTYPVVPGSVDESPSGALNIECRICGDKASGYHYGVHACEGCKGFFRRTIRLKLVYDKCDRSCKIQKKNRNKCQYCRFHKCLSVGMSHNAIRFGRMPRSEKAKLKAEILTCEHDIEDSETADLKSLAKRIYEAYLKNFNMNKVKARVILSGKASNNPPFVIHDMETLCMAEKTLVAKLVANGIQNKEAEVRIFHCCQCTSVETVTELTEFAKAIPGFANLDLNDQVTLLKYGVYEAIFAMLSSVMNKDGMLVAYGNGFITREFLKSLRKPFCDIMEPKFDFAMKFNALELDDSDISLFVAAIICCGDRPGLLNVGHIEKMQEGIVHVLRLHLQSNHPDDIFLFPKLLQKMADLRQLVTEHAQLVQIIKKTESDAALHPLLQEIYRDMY
# From the text: HepG2 cells were transfected with the full length PPARα promoter reporter construct and stimulated by INV-75 ([…]). Results in C are expressed as % increase compared to WY 14643.
# We used a reporter gene assay in HepG2 cells to screen for agonists of the peroxisome proliferator-activated receptors. Peroxisome proliferator-activated receptors (PPARs) and other members of the nuclear hormone receptor family are important drug targets for the treatment of metabolic diseases. PPARs play crucial roles in lipid and glucose metabolism, respectively. Therefore, screening methods that help to rapidly identify activators of these receptors should be of considerable value. INV-75 activated a classic PPARα gene, Acetyl-CoA Oxidase (ACO) in a dose dependent and time dependent fashion (FIG. 6A). The time course experiment was performed in presence of INV-75 up to 15 hours. […] We next tested the specificity of INV-75 for PPARα by performing experiments in HepG2 cells transfected with yeast GAL4-PPARα-LBD plasmid+UAS-Luciferase; GAL4-PPARδ-LBD plasmid+UAS-Luciferase and […]. The PPARα, PPARδ and PPARγ binding assays were performed using multiple concentrations of INV-75 (1 μM, 10 μM, 100 μM and 1000 μM). The level of luciferase activity corresponded to the degree of PPAR activation. The results were compared with classic PPAR agonists such as WY-14643 (PPARα agonist), Bezafibrate (PPARδ agonist) and Rosiglitazone ([…]).
# [1] = test system: Watanabe Heritable Hyperlipidemic Rabbits (WHHL); experiment: Immunohistochemistry and staining of WHHL rabbit aorta; assay type: in vivo
# Description: Immunohistochemical staining was performed to assess inflammatory content using the primary antibodies (1:200 concentration) and a detection system (Immunoperoxidase Secondary Detection System; Chemicon International, Temecula, Calif.), and quantified with software (NIH Image) after digitization of the images with a camera system (Zeiss Axioskop with Spot I digital camera). Antibodies against CD68 were purchased from Santa Cruz Biotechnology Incorporated (Santa Cruz, Calif.). A polyclonal anti-α-Actin antibody was obtained from Upstate Cell Signaling Solutions (Lake Placid, N.Y.). T cell receptor β antibody was obtained from Biolegend (San Diego, Calif.). To quantify the staining, the mean density of 4 negative control (no primary antibody) sections was set as the threshold, and positive area was acquired by software. Results were finally normalized by the area subtended by the external elastic lamina to the luminal interface or the intimal-medial volume. The effects of INV-75 on macrophages and smooth muscle cells in comparison to control group were evaluated by CD68 and α-actin immunohistochemistry, respectively. INV-75 decreased the number of macrophages vs. controls and summary of whole groups is represented by bar diagram in FIG. 10 (n=4-5 animals/group). *p<0.05 vs control animals using unpaired t test). […] INV-75 increased the smooth muscle content (% of total area) vs controls and the combined results were represented as a bar diagram n=5/group (n=number of animals used per group). *p<0.05 vs control animals.
# Lipid deposition in aorta was identified after total 14 weeks of treatment with drug, rabbits were sacrificed and abdominal aortas were fixed in 4% paraformaldehyde. The lipid deposition in aortic wall was then visualized by oil red staining. […] (FIG. 13).
# [2] = test system: Watanabe Heritable Hyperlipidemic Rabbits (WHHL); experiment: Lucigenin chemiluminescence for NADPH derived superoxide in WHHL aortic lysates; assay type: in vivo, rabbit; settings: vs control
# Description: Oxidative stress has been implicated in atherosclerosis. Superoxide (O2^•−) derived from NADPH could potentially trigger a free radical chain reaction which could potentially catalyze atherosclerotic plaque formation. Rabbit aorta was homogenized in PBS, and the protein concentration was adjusted to 5 μg/μl. 20 ul/well of cell lysates were plated on a 96-well microplate in Kreps-Hepes Buffer (pH=7.4; initially gassed with 95% O2, and 5% CO2). The baseline O2^•− production was measured with 5 μM Lucigenin. NADPH induced O2^•− production was measured by adding NADPH (100 μM). Measurements were performed with Berthold Luminometer LB 960. Luminometer settings were 0.1 s measurement and 30s kinetics.
structure (smiles),measurement,setting,value
"CC(=O)Oc1cc2c(cc1[N+](=O)[O-])OCO2 [INV-75, 3,4-methylenedioxy-6-nitrophenyl acetate]",luciferase activation,human full length PPARα; HepG2 transfected with PPARα promoter-reporter construct,increased
same,persistence of effects on PPARα activation,human full length PPARα; time course,up to 15 hours
same,time of onset of PPARα activation,human full length PPARα; time course,< 1 h
same,collagen content (Masson's trichrome),"[1]; WHHL abdominal aorta, vs control group",reduction
same,lipid component (Oil Red O),"[1]; WHHL abdominal aorta, vs controls",decreased
same,number of macrophages (CD68),"[1]; WHHL aorta, vs controls",decreased
same,"smooth muscle content (% of total area, α-actin)","[1]; WHHL aorta, vs controls",increased
same,basal and stimulated superoxide production in aortic tissue lysates,[2],lower
